Source: patent US10947242B2, “[1,2,4]triazolo[1,5and#8208;A]pyrimidine compounds as PDE2 inhibitors” (Janssen Pharmaceutica NV, priority 2016, dated 2021)
Like-named read-outs stand apart in the source and are kept apart here.

How the values were obtained:
[1] = target: T1, Human recombinant PDE3A (hPDE3A) (Homo sapiens, UniProt Q14432); assay: In vitro assay PDE3A (SPA, 3H-cAMP hydrolysis); format: biochemical; details: for IC50: hPDE3B pIC50; for Emax: read-out: hPDE3B Emax, read-out: Emax;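 for Emax: the method names PDE3A and the table heading PDE3B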
T1 construct: purchased Scottish Biomedical; host or cells: Sf9 insect cells
T1 sequence (Q14432 whole entry): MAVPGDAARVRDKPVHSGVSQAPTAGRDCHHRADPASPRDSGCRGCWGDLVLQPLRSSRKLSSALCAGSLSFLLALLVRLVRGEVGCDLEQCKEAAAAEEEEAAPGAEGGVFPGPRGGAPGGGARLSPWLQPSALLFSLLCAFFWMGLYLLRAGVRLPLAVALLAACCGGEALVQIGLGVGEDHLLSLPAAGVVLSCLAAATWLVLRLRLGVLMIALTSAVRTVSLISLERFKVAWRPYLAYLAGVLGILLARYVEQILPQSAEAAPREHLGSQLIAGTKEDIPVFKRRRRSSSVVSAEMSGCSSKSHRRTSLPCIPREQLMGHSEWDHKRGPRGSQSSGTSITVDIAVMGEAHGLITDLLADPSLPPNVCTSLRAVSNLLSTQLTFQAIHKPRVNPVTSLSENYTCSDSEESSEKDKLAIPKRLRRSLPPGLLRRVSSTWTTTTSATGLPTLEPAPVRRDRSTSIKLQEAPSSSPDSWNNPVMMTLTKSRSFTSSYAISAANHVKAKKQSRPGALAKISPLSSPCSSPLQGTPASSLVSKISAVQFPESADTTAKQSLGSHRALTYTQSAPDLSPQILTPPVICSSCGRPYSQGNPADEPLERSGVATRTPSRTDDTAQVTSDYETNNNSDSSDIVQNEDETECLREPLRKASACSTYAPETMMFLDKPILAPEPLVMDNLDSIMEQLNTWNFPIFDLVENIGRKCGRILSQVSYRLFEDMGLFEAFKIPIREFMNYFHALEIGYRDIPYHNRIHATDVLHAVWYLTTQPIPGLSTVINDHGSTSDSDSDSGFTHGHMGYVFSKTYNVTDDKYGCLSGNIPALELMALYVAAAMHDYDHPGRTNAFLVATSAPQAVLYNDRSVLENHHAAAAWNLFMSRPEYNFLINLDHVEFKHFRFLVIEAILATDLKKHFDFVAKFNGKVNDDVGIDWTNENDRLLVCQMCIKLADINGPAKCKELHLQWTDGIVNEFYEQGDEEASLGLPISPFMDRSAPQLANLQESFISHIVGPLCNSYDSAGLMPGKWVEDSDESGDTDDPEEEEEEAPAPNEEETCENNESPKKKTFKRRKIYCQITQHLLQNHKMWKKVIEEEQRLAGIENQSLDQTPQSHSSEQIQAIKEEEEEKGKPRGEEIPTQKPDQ
Method in brief: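 Human PDE3A, cloned from brain, as partially purified Sf9 lysate. Substrate 0.4 μM cAMP plus [3H]-cAMP (2.4 μCi/ml final) in 50 mM Tris pH 7.8, 8.3 mM MgCl2, 1.7 mM EGTA, 60 min at room temperature, 1% DMSO final. Hydrolysis read by SPA scintillation counting against no-enzyme blanks and DMSO controls.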

[2] = target: T2, Human recombinant PDE2A (hPDE2A) (Homo sapiens, UniProt O00408); assay: In vitro assay PDE2A (SPA, 3H-cGMP hydrolysis); format: biochemical; details: for Emax: read-out: hPDE2A Emax
T2 construct: His tag (inferred from metal chelate purification); made in house; host or cells: Sf9 insect cells (baculovirus)
T2 sequence (O00408 whole entry): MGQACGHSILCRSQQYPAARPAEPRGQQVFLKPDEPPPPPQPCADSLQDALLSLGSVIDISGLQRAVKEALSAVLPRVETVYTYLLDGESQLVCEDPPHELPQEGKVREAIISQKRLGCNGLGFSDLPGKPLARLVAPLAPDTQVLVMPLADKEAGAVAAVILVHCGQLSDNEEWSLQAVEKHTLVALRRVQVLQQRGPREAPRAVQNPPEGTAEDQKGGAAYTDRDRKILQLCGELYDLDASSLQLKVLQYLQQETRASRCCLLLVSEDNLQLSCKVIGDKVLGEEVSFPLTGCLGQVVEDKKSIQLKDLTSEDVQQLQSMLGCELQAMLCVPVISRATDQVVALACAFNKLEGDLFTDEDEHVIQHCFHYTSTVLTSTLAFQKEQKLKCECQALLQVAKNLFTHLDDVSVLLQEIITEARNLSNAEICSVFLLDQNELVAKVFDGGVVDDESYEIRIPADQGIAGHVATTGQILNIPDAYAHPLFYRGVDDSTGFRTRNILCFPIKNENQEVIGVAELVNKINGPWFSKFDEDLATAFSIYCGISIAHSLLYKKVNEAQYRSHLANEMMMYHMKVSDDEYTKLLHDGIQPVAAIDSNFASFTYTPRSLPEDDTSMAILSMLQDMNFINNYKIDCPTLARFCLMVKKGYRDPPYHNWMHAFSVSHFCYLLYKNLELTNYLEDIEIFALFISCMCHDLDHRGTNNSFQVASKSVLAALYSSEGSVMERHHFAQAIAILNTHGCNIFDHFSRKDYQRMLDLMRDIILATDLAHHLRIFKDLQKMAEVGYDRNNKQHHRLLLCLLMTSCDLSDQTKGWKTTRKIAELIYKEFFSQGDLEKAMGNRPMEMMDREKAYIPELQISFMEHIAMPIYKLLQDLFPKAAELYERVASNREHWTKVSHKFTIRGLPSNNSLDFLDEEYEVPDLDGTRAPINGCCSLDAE

[3] = target: T3, Human recombinant PDE10A (hPDE10A) (Homo sapiens, UniProt Q9Y233); assay: In vitro assay PDE10A, human clone (SPA, 3H-cAMP hydrolysis); format: biochemical
T3 construct: His tag (inferred from metal chelate purification); made in house; host or cells: Sf9 insect cells (baculovirus)
T3 sequence (Q9Y233 267-1055): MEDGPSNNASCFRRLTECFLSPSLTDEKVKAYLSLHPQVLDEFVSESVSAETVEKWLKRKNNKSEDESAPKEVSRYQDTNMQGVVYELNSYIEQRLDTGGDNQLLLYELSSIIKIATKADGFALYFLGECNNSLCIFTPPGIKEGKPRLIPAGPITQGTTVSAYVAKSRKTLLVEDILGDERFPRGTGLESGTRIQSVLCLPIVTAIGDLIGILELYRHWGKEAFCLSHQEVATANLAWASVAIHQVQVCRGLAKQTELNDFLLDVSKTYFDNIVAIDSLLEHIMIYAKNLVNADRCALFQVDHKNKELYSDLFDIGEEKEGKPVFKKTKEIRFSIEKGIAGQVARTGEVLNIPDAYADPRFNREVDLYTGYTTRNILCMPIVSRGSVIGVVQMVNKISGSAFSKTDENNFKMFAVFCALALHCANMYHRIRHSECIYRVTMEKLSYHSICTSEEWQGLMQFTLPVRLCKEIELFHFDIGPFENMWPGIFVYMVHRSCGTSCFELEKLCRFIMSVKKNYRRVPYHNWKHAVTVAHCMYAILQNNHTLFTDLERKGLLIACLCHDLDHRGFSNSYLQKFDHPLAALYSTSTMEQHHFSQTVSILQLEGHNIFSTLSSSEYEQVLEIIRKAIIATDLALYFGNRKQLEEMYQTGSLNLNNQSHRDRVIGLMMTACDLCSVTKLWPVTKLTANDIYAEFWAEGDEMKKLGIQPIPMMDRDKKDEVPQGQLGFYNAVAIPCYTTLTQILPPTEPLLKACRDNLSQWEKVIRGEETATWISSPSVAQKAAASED
Method in brief: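 Human recombinant PDE10A was expressed in Sf9 cells via baculovirus and incubated with compound in 50 mM Tris pH 7.8, 8.3 mM MgCl2, 1.7 mM EGTA. Substrate was 60 nM cAMP plus 0.008 μCi 3H-cAMP for 60 min at room temperature, read by SPA scintillation counting. Controls used 1% DMSO, and blanks omitted enzyme.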

PDE2A = target: T4, PDE2A (Rattus norvegicus, UniProt Q01062); assay: PDE2 occupancy by test compounds, ex-vivo autoradiography with [3H]B-17a; format: in vivo, Male Wistar rats; details: 10 mg/kg, percentage receptor occupancy, ex-vivo autoradiography, striatum
T4 construct: Twenty μm-thick striatal sections were cut; from tissue; host or cells: rat brain, striatal sections
T4 sequence (Q01062 1-928): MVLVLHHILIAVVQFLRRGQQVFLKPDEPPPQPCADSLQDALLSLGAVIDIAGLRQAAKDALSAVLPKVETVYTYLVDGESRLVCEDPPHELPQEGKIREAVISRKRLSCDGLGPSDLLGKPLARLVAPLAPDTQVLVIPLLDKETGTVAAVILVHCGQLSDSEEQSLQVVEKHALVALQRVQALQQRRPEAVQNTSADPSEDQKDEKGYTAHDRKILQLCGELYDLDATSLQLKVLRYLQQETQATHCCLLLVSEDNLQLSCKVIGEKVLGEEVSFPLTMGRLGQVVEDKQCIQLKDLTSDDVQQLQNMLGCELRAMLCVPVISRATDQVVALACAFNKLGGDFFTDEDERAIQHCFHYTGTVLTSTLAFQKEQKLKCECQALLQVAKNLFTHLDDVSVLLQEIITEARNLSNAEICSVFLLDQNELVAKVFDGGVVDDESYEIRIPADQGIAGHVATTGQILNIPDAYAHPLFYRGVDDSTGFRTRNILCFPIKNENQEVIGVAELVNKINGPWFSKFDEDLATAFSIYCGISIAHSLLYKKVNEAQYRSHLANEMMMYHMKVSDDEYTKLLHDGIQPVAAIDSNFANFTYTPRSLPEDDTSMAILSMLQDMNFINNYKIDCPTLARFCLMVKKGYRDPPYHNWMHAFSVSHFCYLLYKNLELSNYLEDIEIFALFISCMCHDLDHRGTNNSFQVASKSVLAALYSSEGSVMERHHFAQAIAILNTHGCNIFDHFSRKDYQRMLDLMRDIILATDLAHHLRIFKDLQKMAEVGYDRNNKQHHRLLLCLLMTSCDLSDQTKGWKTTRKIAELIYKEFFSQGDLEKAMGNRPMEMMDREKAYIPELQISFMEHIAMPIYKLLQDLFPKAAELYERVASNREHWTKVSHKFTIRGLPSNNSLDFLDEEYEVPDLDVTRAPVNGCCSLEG

[4] = read-out: hPDE2A pIC50 (converted)
[5] = human clone by default (no (r) mark), read-out: hPDE10A2 or rPDE10A2 Emax
[6] = human clone by default (no (r) mark), read-out: hPDE10A2 or rPDE10A2 pIC50 (converted)
[7] = human recombinant PDE2A, 10 μM cGMP substrate, read-out: hPDE2A pIC50 (converted)
[8] = human clone (h), default, read-out: hPDE10A2 Emax
[9] = human clone (h), default, read-out: hPDE10A2 pIC50 (converted)

Row | Structure (SMILES) | IC50 ([1]; read-out: pIC50 (converted)) [nM] | Emax [1] [%] | Emax [2] [%] | IC50 [2, 4] [nM] | Emax [3, 5] [%] | IC50 [3, 6] [nM] | receptor occupancy at 10 mg/kg (PDE2A; route PO (oral)) [%] | IC50 [2, 7] [nM] | Emax ([2]; human recombinant PDE2A) [%] | Emax [3, 8] [%] | IC50 [3, 9] [nM] | receptor occupancy at 10 mg/kg (PDE2A; route SC (subcutaneous)) [%] | receptor occupancy at 10 mg/kg (PDE2A; po, route PO (oral)) [%] | receptor occupancy at 10 mg/kg (PDE2A; sc, route SC (subcutaneous)) [%] | IC50 ([2]; hPDE2A pIC50) [nM] | IC50 ([2]; hPDE2A pIC50, human recombinant PDE2A, 10 μM cGMP substrate) [nM] | IC50 [1] [nM] | IC50 ([3]; hPDE10A2 or rPDE10A2 pIC50, human clone by default (no (r) mark)) [nM]
1 | O=C(c1ccc2ncccc2c1)N1[C@H]2CC[C@H](c3cc(C(F)F)nc4ncnn34)[C@@H]1CC2 [Compound 311] | 7410 | 62 | 96 | 1.1 | 96 | 427 | -1 | – | – | – | – | – | – | – | – | – | – | –
2 | O=C(c1ccc2ncc(F)cc2c1)N1[C@H]2CC[C@H](c3cc(C(F)F)nc4ncnn34)[C@@H]1CC2 [Compound 312] | > 10000 | 37 | 99 | 21.9 | 93 | 617 | -16 | – | – | – | – | – | – | – | – | – | – | –
3 | Cc1cc(C(=O)N2[C@H]3CC[C@@H]2[C@H](c2cc(C(F)F)nc4ncnn24)CC3)cc(C)n1 [Compound 30] | > 10000 | 8 | 77 | 3550 | – | – | – | 3550 | 77 | 32 | > 10000 | 0 | – | – | – | – | – | –
4 | COc1cc(C(=O)N2CC[C@@H](C)[C@H](c3cc(C(F)F)nc4ncnn34)C2)c(F)c(C)n1 [Compound 398] | 5250 | 67 | 99 | 4.9 | 95 | 589 | – | – | – | – | – | – | 29 | – | – | – | – | –
5 | Cc1cc(Cl)cc(C(=O)N2[C@H]3CC[C@H](c4cc(C(F)F)nc5ncnn45)[C@@H]2CC3)c1 [Compound 339] | 4790 | 69 | 101 | 6.61 | 95 | 617 | -1 | – | – | – | – | – | – | – | – | – | – | –
6 | Cc1nc2cccc(C(=O)N3CC[C@@H](C)[C@H](c4cc(C(F)F)nc5ncnn45)C3)c2o1 [Compound 50] | > 10000 | 61 | 100 | 3.09 | – | – | – | 3.09 | 100 | 93 | 724 | – | -30 | – | – | – | – | –
7 | C[C@@H]1CCN(C(=O)c2cc(Cl)ncc2F)C[C@H]1c1cc(C(F)F)nc2ncnn12 [Compound 54] | 9550 | 51 | 100 | 4.17 | – | – | – | 4.17 | 100 | 89 | 661 | – | 39 | – | – | – | – | –
8 | COc1ccc(C(=O)N2CC[C@@H](C)[C@H](c3cc(C(F)F)nc4ncnn34)C2)cn1 [Compound 196] | 4900 | 68 | 99 | 23.4 | – | – | – | 23.4 | 99 | 92 | 562 | – | 0 | – | – | – | – | –
9 | C[C@@H]1CCN(C(=O)c2ccc(F)c(OC(F)F)c2)C[C@H]1c1cc(C(F)F)nc2ncnn12 [Compound 193] | 3470 | 76 | 100 | 5.89 | – | – | – | 5.89 | 100 | 98 | 138 | – | -11 | -3 | – | – | – | –
10 | Cc1cc([C@@H]2CN(C(=O)c3cc(C4CC4)ncc3C(F)(F)F)CC[C@H]2C)n2ncnc2n1 [Compound 283] | > 10000 | 38 | 100 | 8.51 | 98 | 178 | – | – | – | – | – | – | -12 | – | – | – | – | –
11 | CCCC[C@H]1CCN(C(=O)c2cc(C)nc(C)c2)C[C@@H]1c1cc(C(F)F)nc2ncnn12 (single isomer, unassigned) [Compound 46] | > 10000 | 5 | 100 | 15.1 | – | – | – | 15.1 | 100 | 86 | 2240 | – | -9 | – | – | – | – | –
12 | C[C@@H]1CCN(C(=O)c2cc(F)cc(C#N)c2)C[C@H]1c1cc(C(F)F)nc2ncnn12 [Compound 190] | > 10000 | 39 | 100 | – | – | – | – | – | – | 96 | 158 | – | 1 | – | 10.2 | 10.2 | – | –
13 | Cc1cc(C(=O)N2CC[C@@H](C)[C@H](c3cc(C(F)F)nc4ncnn34)C2)cc(OC(C)C)n1 [Compound 107] | 4170 | 61 | 100 | 0.912 | – | – | – | 0.912 | 100 | 99 | 81.3 | – | 29 | – | – | – | – | –
14 | Cc1csc(C(=O)N2[C@H]3CC[C@H](c4cc(C(F)F)nc5ncnn45)[C@@H]2CC3)c1 [Compound 347] | – | 63 | 101 | – | 91 | – | 11 | – | – | – | – | – | – | – | 5.37 | – | 7240 | 1000
15 | C[C@@H]1CCN(C(=O)c2cc(C3CC3)ncc2F)C[C@@]1(F)c1cc(C(F)F)nc2ncnn12 [Compound 277] | > 10000 | 14 | 99 | 75.9 | 27 | > 10000 | – | – | – | – | – | – | -4 | – | – | – | – | –
16 | Cc1cc(C(=O)N2CC[C@@H](C)[C@H](c3cc(C(F)F)nc4ncnn34)C2)c(F)c(OC2CC2)n1 [Compound 392] | 447 | 97 | 99 | 1.12 | 93 | 263 | – | – | – | – | – | – | 46 | – | – | – | – | –
